Source: ChEMBL document CHEMBL2074143, “Up-regulation of organic anion transporter 1 protein is induced by chronic furosemide or hydrochlorothiazide infusion in rat kidney” (Nephrol Dial Transplant, 2003)

Columns and labels:
[1] = biological target: T1, Solute carrier family 22 member 6 (Rattus norvegicus, UniProt O35956); assay: TP_TRANSPORTER: Western in vivo, SD rat, kidney; format: functional, organism-based, Sprague-Dawley
T1 sequence (O35956 whole entry): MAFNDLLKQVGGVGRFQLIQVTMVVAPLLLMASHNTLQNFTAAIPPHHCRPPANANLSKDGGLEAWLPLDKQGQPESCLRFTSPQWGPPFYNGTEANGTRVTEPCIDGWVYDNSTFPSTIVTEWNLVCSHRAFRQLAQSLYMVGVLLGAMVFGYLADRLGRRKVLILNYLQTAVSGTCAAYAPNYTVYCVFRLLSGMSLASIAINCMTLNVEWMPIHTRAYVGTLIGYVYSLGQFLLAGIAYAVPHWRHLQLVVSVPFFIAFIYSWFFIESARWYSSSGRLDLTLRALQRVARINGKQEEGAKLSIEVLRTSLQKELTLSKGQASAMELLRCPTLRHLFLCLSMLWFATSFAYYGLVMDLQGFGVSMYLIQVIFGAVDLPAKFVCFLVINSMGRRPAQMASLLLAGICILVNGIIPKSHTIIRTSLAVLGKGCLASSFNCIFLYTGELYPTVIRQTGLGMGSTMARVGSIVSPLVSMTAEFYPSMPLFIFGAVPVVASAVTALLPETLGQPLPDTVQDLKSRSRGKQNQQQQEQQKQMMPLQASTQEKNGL

[2] = biological target: T1, Solute carrier family 22 member 6; assay: TP_TRANSPORTER: quantitative PCR in vivo, SD rat, kidney; format: functional, organism-based, Sprague-Dawley

For `NS(=O)(=O)c1cc(C(=O)O)c(NCc2ccco2)cc1Cl` [FUROSEMIDE], the Activity [1] was “inducer []” and the Activity [2] was “inducer []”.
